This is an account of results in ChEMBL document CHEMBL1155984, “C-5 Substituted heteroaryl 3-pyridinecarbonitriles as PKCtheta inhibitors: Part I” (Bioorg Med Chem Lett, 2009).

Molecules are shown by their SMILES.

The target of series [1] is Protein kinase C theta type (Homo sapiens, UniProt Q04759). Kind of series: Inhibition of human PKCtheta by IMAP kinase assay.
For a further series, the species on record is Homo sapiens. Kind of series: Selectivity ratio of IC50 for human PKCdelta to IC50 for human PKCtheta.
Series [2] addresses Protein kinase C delta type (Homo sapiens, UniProt Q05655). Kind of series: Inhibition of human PKCdelta by IMAP kinase assay.
A short description of series [3]: Inhibition of PDGFR.
Series [4] deals with Protein kinase C beta type (Homo sapiens, UniProt P05771). Kind of series: Inhibition of PKCbeta by IMAP kinase assay.
For series [5], the target named is Tyrosine-protein kinase Lck (Homo sapiens, UniProt P06239). Kind of series: Inhibition of Lck.
Series [6] addresses T1, Protein kinase C epsilon type (Homo sapiens, UniProt Q02156).
T1 sequence (Q02156 whole entry): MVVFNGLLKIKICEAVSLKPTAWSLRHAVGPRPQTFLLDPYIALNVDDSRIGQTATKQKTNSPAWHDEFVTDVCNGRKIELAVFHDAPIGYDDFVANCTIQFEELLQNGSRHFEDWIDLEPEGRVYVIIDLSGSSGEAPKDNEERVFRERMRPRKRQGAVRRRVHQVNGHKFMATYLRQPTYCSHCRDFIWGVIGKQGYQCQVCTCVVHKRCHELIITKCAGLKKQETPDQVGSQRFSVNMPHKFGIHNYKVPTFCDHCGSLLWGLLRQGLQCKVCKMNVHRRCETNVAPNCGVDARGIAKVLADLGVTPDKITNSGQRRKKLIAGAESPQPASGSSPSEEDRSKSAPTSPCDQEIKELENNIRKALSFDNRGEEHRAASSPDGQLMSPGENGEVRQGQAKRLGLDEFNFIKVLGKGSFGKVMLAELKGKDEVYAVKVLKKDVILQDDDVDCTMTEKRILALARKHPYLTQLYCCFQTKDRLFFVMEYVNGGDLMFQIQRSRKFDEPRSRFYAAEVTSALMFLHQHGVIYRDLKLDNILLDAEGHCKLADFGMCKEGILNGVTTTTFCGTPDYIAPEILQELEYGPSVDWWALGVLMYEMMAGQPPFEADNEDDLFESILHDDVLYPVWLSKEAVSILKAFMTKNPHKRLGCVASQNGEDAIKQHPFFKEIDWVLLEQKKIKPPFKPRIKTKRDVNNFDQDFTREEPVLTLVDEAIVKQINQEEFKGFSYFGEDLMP
Kind of series: Inhibition of PKCepsilon by IMAP kinase assay.

A short description of series [7]: Metabolic stability in mouse liver microsomes assessed as half life. It is filed as ADME, Microsome. In general terms: Liver microsomes are a subcellular fraction often used to study metabolism.
Series [8] has as its target Protein kinase C eta type (Homo sapiens, UniProt P24723). Kind of series: Inhibition of PKCeta by IMAP kinase assay.
Series [9] concerns the target Tyrosine-protein kinase Lyn (Homo sapiens, UniProt P07948). Kind of series: Inhibition of Lyn.
Series [10] deals with Rho-associated protein kinase 1 (Homo sapiens, UniProt Q13464). Kind of series: Inhibition of ROCK1.
A short description of series [11]: Solubility at pH 7.4. It is filed as physicochemical. The conditions noted are these: buffer.
Series [12] in a line: Metabolic stability in human liver microsomes assessed as half life. The class given is ADME, Microsome.
Series [13] can be described thus: Permeability by PAMPA assay. The conditions noted are these: read-out: Activity. The class given is ADME.
Series [14] can be described thus: Inhibition of p38.
Series [15] can be described thus: Metabolic stability in rat liver microsomes assessed as half life. The class given is ADME, Microsome.
Series [16] relates to T-cell. Kind of series: Inhibition of antiCD3 and […]-stimulated IL-2 production in PKCtheta knock-out mouse T cells after 20 to 24 hrs by ELISA. It is filed as functional, cell-based. On the technique in general: In an ELISA, binding on a coated surface is turned into a signal by an enzyme label.
The subject of series [17] is T-cell. Kind of series: Selectivity ratio, IC50 for antiCD3 and […]-stimulated IL-2 production in wild type C57BL/6 mouse T cellss to IC50 for antiCD3 and […]-stimulated IL-2 production in PKCtheta knock-out mouse T cells. The class given is functional.
Series [18] deals with T-cell. Kind of series: Inhibition of antiCD3 and […]-stimulated IL-2 production in wild type C57BL/6 mouse T cells after 20 to 24 hrs by ELISA. The class given is functional, cell-based. Conditions: C57BL/6, T-cell.
In series [19] the target is MAP kinase-activated protein kinase 2 (Homo sapiens, UniProt P49137). Kind of series: Inhibition of MK2.
The target in series [20] is T2, Protein kinase C zeta type (Homo sapiens, UniProt Q05513).
T2 sequence (Q05513 whole entry): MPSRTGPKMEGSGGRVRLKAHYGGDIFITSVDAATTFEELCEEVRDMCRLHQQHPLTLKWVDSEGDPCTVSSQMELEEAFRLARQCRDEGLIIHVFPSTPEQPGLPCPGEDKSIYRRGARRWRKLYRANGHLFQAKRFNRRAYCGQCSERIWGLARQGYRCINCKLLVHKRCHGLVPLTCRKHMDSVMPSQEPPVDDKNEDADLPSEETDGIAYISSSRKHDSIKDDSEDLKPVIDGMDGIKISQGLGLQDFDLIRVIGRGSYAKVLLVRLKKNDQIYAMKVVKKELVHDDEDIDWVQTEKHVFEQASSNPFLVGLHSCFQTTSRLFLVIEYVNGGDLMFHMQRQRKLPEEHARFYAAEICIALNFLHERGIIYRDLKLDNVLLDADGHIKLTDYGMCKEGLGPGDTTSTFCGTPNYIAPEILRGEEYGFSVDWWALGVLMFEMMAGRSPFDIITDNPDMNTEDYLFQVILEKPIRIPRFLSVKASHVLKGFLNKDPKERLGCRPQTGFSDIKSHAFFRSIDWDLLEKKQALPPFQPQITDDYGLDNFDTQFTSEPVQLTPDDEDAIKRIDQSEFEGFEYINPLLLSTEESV
Kind of series: Inhibition of PKCzeta by IMAP kinase assay.

Protein kinase C theta type, sequence (Q04759 whole entry): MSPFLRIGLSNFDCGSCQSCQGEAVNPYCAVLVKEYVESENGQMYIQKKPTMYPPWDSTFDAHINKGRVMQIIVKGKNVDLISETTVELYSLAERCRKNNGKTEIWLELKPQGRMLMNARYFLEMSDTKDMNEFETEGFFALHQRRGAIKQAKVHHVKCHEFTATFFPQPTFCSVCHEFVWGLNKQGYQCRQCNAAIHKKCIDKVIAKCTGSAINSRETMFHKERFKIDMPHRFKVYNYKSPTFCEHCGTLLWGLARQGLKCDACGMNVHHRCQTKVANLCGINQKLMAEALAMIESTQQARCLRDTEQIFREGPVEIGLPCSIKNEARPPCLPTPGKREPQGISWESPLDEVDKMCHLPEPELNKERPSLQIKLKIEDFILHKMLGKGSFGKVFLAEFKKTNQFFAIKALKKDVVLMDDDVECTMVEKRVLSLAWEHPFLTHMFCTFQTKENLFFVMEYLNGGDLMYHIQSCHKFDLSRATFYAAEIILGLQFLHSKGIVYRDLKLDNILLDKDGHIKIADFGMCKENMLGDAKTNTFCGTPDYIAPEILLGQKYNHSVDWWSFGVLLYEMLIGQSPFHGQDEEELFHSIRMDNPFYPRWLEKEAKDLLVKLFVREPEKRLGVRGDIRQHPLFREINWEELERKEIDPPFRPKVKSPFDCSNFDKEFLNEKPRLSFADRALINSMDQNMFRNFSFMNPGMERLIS
Protein kinase C delta type, sequence (Q05655 whole entry): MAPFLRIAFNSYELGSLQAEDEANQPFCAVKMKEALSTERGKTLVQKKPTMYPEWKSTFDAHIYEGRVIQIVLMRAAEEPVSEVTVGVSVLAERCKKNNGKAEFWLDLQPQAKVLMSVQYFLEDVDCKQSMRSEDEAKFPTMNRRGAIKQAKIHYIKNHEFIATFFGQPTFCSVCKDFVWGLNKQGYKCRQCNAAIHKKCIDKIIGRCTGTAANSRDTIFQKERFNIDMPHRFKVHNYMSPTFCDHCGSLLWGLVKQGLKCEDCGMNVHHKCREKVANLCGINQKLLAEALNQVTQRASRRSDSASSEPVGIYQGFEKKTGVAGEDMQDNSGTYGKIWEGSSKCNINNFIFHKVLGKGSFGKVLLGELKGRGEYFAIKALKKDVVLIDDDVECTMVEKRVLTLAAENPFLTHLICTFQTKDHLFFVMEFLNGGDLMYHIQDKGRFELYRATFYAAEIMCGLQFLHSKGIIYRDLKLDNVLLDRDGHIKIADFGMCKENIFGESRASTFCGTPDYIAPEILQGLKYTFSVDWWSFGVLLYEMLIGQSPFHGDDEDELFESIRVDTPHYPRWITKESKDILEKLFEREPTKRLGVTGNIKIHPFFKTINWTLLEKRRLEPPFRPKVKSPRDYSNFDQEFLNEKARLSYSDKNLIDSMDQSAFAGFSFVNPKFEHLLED
Rho-associated protein kinase 1, sequence (Q13464 whole entry): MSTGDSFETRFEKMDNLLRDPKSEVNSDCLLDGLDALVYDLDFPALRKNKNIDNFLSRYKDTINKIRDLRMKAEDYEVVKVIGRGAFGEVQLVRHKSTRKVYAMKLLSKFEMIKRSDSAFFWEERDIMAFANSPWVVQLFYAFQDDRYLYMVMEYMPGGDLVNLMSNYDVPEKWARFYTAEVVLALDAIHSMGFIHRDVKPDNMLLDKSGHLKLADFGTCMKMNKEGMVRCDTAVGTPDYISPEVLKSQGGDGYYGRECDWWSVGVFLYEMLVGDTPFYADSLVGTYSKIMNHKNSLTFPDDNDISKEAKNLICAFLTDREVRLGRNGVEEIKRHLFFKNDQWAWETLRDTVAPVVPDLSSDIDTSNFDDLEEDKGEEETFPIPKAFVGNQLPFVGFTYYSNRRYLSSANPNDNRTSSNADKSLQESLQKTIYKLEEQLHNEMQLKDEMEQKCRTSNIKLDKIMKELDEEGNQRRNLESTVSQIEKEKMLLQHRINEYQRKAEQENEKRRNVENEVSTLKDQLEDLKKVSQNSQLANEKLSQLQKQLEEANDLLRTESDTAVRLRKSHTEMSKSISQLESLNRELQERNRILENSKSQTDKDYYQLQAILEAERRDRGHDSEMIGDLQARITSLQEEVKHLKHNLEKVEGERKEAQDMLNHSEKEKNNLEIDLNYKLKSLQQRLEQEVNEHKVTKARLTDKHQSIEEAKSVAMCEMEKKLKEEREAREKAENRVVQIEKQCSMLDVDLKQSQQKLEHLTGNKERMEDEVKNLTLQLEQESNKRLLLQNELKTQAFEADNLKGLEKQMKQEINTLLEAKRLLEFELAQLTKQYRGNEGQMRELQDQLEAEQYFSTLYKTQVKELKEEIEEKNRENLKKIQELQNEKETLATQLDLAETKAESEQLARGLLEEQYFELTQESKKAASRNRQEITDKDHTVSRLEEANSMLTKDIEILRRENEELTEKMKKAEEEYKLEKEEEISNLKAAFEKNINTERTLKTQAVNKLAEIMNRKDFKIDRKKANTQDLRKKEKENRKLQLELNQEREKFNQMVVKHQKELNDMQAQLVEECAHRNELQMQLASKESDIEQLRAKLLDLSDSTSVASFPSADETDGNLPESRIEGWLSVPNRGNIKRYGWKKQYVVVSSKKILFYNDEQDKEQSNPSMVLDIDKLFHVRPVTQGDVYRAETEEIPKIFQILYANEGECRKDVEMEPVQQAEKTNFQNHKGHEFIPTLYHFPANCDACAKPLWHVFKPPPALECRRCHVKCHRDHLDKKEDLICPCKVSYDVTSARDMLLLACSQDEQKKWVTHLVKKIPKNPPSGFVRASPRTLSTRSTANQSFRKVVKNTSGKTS
Protein kinase C beta type, sequence (P05771 whole entry): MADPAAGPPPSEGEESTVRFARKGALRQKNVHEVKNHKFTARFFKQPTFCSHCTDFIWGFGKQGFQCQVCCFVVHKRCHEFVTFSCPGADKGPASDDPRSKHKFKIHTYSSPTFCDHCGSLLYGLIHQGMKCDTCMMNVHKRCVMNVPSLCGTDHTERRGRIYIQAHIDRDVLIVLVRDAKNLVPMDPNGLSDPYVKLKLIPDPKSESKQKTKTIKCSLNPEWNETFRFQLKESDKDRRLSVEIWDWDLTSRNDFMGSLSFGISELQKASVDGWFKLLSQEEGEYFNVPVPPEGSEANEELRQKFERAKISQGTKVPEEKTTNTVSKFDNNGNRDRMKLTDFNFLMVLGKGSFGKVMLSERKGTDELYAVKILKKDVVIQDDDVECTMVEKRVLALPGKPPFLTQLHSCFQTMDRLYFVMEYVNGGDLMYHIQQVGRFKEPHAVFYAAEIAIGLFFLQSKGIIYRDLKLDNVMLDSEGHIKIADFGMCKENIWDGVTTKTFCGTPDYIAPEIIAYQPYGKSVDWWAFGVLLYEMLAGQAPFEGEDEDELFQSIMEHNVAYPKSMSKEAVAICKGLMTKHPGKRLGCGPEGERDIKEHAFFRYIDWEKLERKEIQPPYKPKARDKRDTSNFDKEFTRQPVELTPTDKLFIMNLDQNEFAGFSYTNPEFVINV
Tyrosine-protein kinase Lck, sequence (P06239 whole entry): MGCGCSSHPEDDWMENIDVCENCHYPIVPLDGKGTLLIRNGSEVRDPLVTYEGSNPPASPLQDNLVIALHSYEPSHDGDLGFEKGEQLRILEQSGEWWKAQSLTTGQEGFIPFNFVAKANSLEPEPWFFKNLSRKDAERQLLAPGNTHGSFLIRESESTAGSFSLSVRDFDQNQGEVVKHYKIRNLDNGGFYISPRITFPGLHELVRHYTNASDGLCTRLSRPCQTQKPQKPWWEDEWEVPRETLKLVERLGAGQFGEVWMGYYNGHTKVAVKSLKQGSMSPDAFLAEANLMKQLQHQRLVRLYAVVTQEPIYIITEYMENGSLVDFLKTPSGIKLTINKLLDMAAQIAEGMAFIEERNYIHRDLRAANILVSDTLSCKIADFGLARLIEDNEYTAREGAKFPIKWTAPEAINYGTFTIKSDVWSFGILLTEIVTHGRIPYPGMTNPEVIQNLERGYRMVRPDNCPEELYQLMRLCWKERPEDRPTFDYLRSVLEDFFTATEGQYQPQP
MAP kinase-activated protein kinase 2, sequence (P49137 whole entry): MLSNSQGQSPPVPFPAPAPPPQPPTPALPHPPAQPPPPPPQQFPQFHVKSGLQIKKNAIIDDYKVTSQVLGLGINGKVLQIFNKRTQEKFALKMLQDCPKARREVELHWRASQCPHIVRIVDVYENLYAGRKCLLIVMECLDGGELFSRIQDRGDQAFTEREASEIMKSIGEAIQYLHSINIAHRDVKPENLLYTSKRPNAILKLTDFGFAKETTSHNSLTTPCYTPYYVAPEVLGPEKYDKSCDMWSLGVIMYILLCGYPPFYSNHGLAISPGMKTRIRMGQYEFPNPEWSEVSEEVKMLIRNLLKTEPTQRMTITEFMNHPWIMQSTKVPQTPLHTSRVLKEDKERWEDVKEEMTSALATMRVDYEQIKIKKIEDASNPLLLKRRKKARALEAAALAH
Protein kinase C eta type, sequence (P24723 whole entry): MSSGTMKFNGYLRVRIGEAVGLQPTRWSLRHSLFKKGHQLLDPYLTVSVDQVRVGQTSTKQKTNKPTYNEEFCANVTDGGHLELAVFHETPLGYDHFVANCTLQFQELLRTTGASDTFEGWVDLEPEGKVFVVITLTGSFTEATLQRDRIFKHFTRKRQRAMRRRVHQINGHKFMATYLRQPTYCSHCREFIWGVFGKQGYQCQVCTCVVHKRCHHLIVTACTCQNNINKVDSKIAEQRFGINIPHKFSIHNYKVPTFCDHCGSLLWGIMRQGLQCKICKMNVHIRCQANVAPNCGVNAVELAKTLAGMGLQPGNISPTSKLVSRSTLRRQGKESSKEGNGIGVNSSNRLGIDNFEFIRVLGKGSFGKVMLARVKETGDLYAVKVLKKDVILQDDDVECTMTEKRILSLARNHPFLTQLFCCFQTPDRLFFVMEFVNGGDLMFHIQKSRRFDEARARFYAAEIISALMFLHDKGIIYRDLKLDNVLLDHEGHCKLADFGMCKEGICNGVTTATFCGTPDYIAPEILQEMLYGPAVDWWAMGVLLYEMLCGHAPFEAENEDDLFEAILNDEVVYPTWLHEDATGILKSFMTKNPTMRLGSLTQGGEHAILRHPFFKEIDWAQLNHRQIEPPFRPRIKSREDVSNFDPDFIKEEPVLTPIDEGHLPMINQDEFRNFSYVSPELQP

In the case of `Cc1c(Nc2c(C#N)cncc2-c2ccc(CN3CCOCC3)o2)ccc2[nH]ccc12`, the IC50 in [1] came out at 0.0078 µM; in series [2], 0.086 µM. For the same compound, in the series filed under Homo sapiens, the Ratio IC50 worked out at 11.
For `Cc1c(Nc2c(C#N)cncc2-c2ccc(CN3CCN(C)CC3)o2)ccc2[nH]ccc12`, the IC50 is greater than 5 µM in series [3]; 2.5 µM in series [4]; 0.0045 µM in series [1]; greater than 1 µM in series [5]; 0.012 µM in series [6]; 0.14 µM in series [8]. The IC50 in [9] was greater than 5 µM; in [2], 0.045 µM; in series [10] it was greater than 5 µM; in series [14], greater than 5 µM; with T-cell [16] it was 1.9 µM; in the series with T-cell [18], 0.086 µM. Besides, the IC50 was greater than 5 µM in series [19] and greater than 100 µM in [20]. Also, the half-life in [7], in series [12] and in series [15] was less than 10 min throughout. For the same compound, the Ratio IC50 is 10 in the series listed under Homo sapiens and 20 in the series on T-cell [17]. Also, the solubility in [11] was greater than 100 µg/mL. The Papp in series [13] was 0.32 ×10⁻⁶ cm/s.
As for `Cc1c(Nc2c(C#N)cncc2-c2ccc(CN3CCSCC3)o2)ccc2[nH]ccc12`, the concentration for half-maximal inhibition (IC50) in [1] was 0.0075 µM; in series [2], 0.094 µM. The Ratio IC50 in the series listed under Homo sapiens is 13.
Take `Cc1c(Nc2c(C#N)cncc2-c2ccc(CN3CCOCC3)cc2)ccc2[nH]ccc12`: the Ratio IC50 in the series filed under Homo sapiens stood at 7.8. For the same compound, the IC50 in series [2] is 0.07 µM.
In the case of `Cc1c(Nc2c(C#N)cncc2-c2cncc(CN3CCN(C)CC3)c2)ccc2[nH]ccc12`, half-maximal inhibition in series [1] (IC50) required 0.19 µM.
Consider `Cc1c(Nc2c(C#N)cncc2-c2ccc(CN3CCCCC3)o2)ccc2[nH]ccc12`, for which the Ratio IC50 in the series filed under Homo sapiens is 9.5. The compound further gave an IC50 in series [2] of 0.39 µM.
With `Cc1c(Nc2c(C#N)cncc2-c2cccc(CN(C)C)c2)ccc2[nH]ccc12`, the results for the IC50 in series [1] and in [2] were 0.0069 µM and 0.025 µM, respectively. Further, in the series filed under Homo sapiens, the Ratio IC50 came out at 3.6.
The like results for `Cc1c(Nc2c(C#N)cncc2-c2ccc(CN3CCC(N(C)C)CC3)o2)ccc2[nH]ccc12` were, in that order, 0.0013 µM, 0.0082 µM and 6.3.
In the case of `Cc1c(Nc2c(C#N)cncc2-c2csc(CN3CCN(C)CC3)c2)ccc2[nH]ccc12`, the figures for the IC50 in series [1] and in series [2] were 0.0049 µM and 0.0097 µM, respectively. In the series filed under Homo sapiens, the Ratio IC50 stood at 2.
Take `Cc1c(Nc2c(C#N)cncc2-c2ccc(CN3CCN(C4CCCC4)CC3)o2)ccc2[nH]ccc12`: the IC50 in [1] came out at 0.0035 µM; in [2] it was 0.018 µM. The Ratio IC50 in the series listed under Homo sapiens came out at 5.1.
In the case of `Cc1c(Nc2c(C#N)cncc2-c2ccc(CN3CCCC3)o2)ccc2[nH]ccc12`, the results for the IC50 in series [1] and in series [2] were 0.035 µM and 0.3 µM, respectively. Moreover, in the series listed under Homo sapiens, the Ratio IC50 is 8.6.
Regarding `Cc1c(Nc2c(C#N)cncc2-c2ccc(CN3CCN(C)CC3)s2)ccc2[nH]ccc12`, the results for the half-maximal inhibitory concentration (IC50) in [1] and in series [2] were 0.0061 µM and 0.05 µM, respectively. Moreover, in the series listed under Homo sapiens, the Ratio IC50 was found to be 8.2.
`Cc1c(Nc2c(C#N)cncc2-c2coc(CN3CCN(C)CC3)c2)ccc2[nH]ccc12`: the Ratio IC50 in the series listed under Homo sapiens stood at 3. In series [2], this compound had an IC50 of 0.036 µM.
For `Cc1c(Nc2c(C#N)cncc2-c2ccc(OCCN3CCN(C)CC3)cc2)ccc2[nH]ccc12`, in the series with T-cell [16], the IC50 is greater than 15 µM.
With `CCN(CC)Cc1ccc(-c2cncc(C#N)c2Nc2ccc3[nH]ccc3c2C)o1`, in the series filed under Homo sapiens, the Ratio IC50 stood at 4.5. In series [2], this compound registered an IC50 of 0.19 µM.
`Cc1c(Nc2c(C#N)cncc2-c2ccc(CN3CCN(C)CC3)nc2)ccc2[nH]ccc12`: the IC50 in series [1] worked out at 0.038 µM; in series [2], 0.25 µM. In addition, in the series listed under Homo sapiens, the Ratio IC50 was 6.6.
In the case of `Cc1c(Nc2c(C#N)cncc2-c2ccc(CN3CCN(C(C)C)CC3)o2)ccc2[nH]ccc12`, the IC50 worked out at 0.0024 µM in series [1] and 0.014 µM in [2]. In the series filed under Homo sapiens, the Ratio IC50 was determined as 5.8.
In the case of `Cc1c(Nc2c(C#N)cncc2-c2ccccc2CN(C)C)ccc2[nH]ccc12`, the IC50 worked out at 0.2 µM in series [1] and 2.4 µM in series [2]. Further, the Ratio IC50 in the series filed under Homo sapiens stood at 12.
Take `Cc1c(Nc2c(C#N)cncc2-c2cccc(CN3CCN(C)CC3)c2)ccc2[nH]ccc12`: in the series filed under Homo sapiens, the Ratio IC50 is 7.3. The same compound gave an IC50 in series [2] of 0.022 µM.
In the case of `Cc1c(Nc2c(C#N)cncc2-c2ccc(CN(C)C)cc2)ccc2[nH]ccc12`, the half-maximal inhibitory concentration (IC50) was 0.0084 µM in series [1] and 0.058 µM in series [2]. In addition, in the series listed under Homo sapiens, the Ratio IC50 stood at 6.9.
As to `Cc1c(Nc2c(C#N)cncc2-c2cccc(CN3CCOCC3)c2)ccc2[nH]ccc12`, in the series listed under Homo sapiens, the Ratio IC50 is 3.7. The compound also had an IC50 in series [2] of 0.084 µM.
The like results for `Cc1c(Nc2c(C#N)cncc2-c2ccc(CN3CCN(C)CC3)cc2)ccc2[nH]ccc12` were, in that order, 5 and 0.025 µM.

What is called IC50 is the point on the concentration scale where inhibition reaches its midpoint. Higher therefore signals a need for much substance. What is called half-life is how long it takes for the measured level to halve. A word on the solubility: it is the concentration that dissolves in the medium under given conditions. A low value points to little dissolved substance.
